Molecules are shown by their SMILES.

Sequence of JAK2-JH1JH2 (O60674 532-1132): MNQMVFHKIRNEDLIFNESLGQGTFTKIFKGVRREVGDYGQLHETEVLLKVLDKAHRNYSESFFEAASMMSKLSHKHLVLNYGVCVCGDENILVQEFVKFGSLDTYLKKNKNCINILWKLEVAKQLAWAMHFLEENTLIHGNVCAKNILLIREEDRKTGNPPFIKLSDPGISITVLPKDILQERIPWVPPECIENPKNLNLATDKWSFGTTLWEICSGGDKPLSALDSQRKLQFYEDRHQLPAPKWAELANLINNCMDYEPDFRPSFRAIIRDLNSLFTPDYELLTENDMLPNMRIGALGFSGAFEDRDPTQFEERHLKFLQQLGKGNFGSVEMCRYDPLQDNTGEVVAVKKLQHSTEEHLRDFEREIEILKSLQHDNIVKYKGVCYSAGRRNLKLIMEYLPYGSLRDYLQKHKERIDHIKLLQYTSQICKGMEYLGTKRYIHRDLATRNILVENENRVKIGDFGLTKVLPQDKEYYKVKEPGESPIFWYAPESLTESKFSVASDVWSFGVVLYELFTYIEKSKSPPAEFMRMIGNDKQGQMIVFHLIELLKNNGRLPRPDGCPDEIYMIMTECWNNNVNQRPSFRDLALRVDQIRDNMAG

The first series concerns the target JAK2-JH1JH2 (Homo sapiens (Human), UniProt O60674). Nature of the series: Enzymatic inhibition assay (RapidFire HTMS), JAK2. Type of series: biochemical. Conditions: 30 μM ATP, 40 μM substrate. In outline:
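Quenched with 0.5% TFA plus internal-standard peptide; phosphorylated product quantified by RapidFire C4 SPE–ESI-MS, 11-point 1:3 or 1:4 dilutions in duplicate.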
For the compound `CC(C)(O)CNC(=O)Cc1nc2cnc3[nH]ccc3c2n1[C@H]1CC[C@H](CC#N)CC1` [Ex. 1, 2-(1-((1r,4r)-4-(Cyanomethyl)cyclohexyl)-1,6-dihydroimidazo[4,5-d]pyrrolo[2,3-b]pyridin-2-yl)-N-(2-hydroxy-2-methylpropyl)acetamide], half-maximal inhibition (IC50) required 8.2 nM. This counts as single-digit nanomolar.

As for `CC(C)(C#N)CNC(=O)Cc1nc2cnc3[nH]ccc3c2n1[C@H]1CC[C@H](CC#N)CC1` [Ex. 22, N-(2-Cyano-2-methylpropyl)-2-(1-((1r,4r)-4-(cyanomethyl)cyclohexyl)-1,6-dihydroimidazo[4,5-d]pyrrolo[2,3-b]pyridin-2-yl)acetamide], half-maximal inhibition (IC50) was put at 5.4 nM. This IC50 is about 1.5-fold lower than that of the compound before. The same measure, in the same setting: the same measure for `N#CC[C@H]1CC[C@H](n2c(CC(=O)NCC3(O)CCC3)nc3cnc4[nH]ccc4c32)CC1` [Ex. 34, 2-(1-((1r,4r)-4-(Cyanomethyl)cyclohexyl)-1,6-dihydroimidazo[4,5-d]pyrrolo[2,3-b]pyridin-2-yl)-N-((1-hydroxycyclobutyl)methyl)acetamide]: 3.1 nM; for `N#CCC12CCC(NC(=O)Cc3nc4cnc5[nH]ccc5c4n3[C@H]3CC[C@H](CC#N)CC3)(CC1)C2` [Ex. 55, N-(4-(Cyanomethyl)bicyclo[2.2.1]heptan-1-yl)-2-(1-((1r,4r)-4-(cyanomethyl)cyclohexyl)-1,6-dihydroimidazo[4,5-d]pyrrolo[2,3-b]pyridin-2-yl)acetamide]: 2.9 nM. Still for that read-out and setting: the same measure for `N#CC[C@H]1CC[C@H](n2c(CC(=O)NCC3(O)CC3)nc3cnc4[nH]ccc4c32)CC1` [Ex. 85, 2-(1-((1r,4r)-4-(Cyanomethyl)cyclohexyl)-1,6-dihydroimidazo[4,5-d]pyrrolo[2,3-b]pyridin-2-yl)-N-((1-hydroxycyclopropyl)methyl)acetamide]: 6.2 nM.

The test system of another series is MDCK-MDR1 cell line. As to the kind of experiment: MDCK-MDR1 permeability assay. To be noted: @ 5 μM, apical to basolateral, with P-gp inhibitor elacridar (2 μM). It is filed as in vitro ADME. In outline:
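MDCK-MDR1 monolayers (passage 6-30, day 4) dosed at 5 μM in HBSS pH 7.4, A-B with or without 2 μM elacridar, and B-A, 60 min at 37° C. LC/MS/MS quantitation; Papp=(dQ/dt)/(C0×S), efflux ratio = Papp(B-A)/Papp(A-B).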
As for `N#CC[C@H]1CC[C@H](n2c(CC(=O)NC3CCOCC3)nc3cnc4[nH]ccc4c32)CC1` [Ex. 5, 2-(1-((1r,4r)-4-(Cyanomethyl)cyclohexyl)-1,6-dihydroimidazo[4,5-d]pyrrolo[2,3-b]pyridin-2-yl)-N-(tetrahydro-2H-pyran-4-yl)acetamide], the “MDCK-MDR1 P^eapp(A-B)” value is on record as 0.5 10^−6 cm/sec.

Values taken from patent publication US10981911B2, “Imidazopyrrolopyridine as inhibitors of the JAK family of kinases” (Janssen Pharmaceutica NV, priority 2016, dated 2021).
